In US11376254B2, “Positive allosteric modulators of the muscarinic acetylcholine receptor M4” (Vanderbilt University, priority 2017, dated 2022):

Columns and labels:
[1] = target: T1, Human M4 (Homo sapiens, UniProt P08173); assay: mAChR M4 cell-based functional assay (calcium flux, potentiation of ACh EC20 response); parameters: Emax: dose or concentration left out as unconfirmed
T1 sequence (P08173 1-479): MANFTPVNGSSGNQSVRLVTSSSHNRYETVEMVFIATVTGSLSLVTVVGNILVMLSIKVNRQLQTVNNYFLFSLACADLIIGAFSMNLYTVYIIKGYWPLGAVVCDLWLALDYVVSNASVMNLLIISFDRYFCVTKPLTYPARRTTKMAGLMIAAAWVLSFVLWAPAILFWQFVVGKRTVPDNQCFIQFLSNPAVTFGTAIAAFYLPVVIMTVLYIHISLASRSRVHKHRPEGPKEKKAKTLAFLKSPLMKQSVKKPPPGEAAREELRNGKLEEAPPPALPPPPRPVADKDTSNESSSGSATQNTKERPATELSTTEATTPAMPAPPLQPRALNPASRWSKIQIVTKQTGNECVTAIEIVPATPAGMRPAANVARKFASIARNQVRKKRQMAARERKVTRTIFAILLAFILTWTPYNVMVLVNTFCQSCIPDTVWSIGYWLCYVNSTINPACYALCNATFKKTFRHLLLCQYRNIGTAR

[2] = In vitro DMPK: rat fraction unbound in brain; assay type: in vitro ADME; conditions: read-out: Rat Fu (brain)
Experimental: (§1) Compound 1 was tested in several in vitro assays to investigate both metabolism and pharmacokinetics. These assays were performed according to known methods as generally described in the following references: Conde-Ceide et al. ACS Med. Chem. Lett. 2015, 6, 716-720; Morris et al. J. Med. Chem. 2014, 57, 10192-10197; and Bubser et al. ACS Chem. Neurosci. 2014, 5, 920-942.

[3] = In vitro DMPK: rat predicted hepatic clearance; assay type: in vitro ADME
Experimental: as §1

[4] = In vitro DMPK: human predicted hepatic clearance; assay type: in vitro ADME
Experimental: as §1

[5] = In vivo DMPK in rat (plasma clearance, brain:plasma distribution); conditions: read-out: Rat CLp
[6] = In vitro DMPK: rat fraction unbound in plasma; assay type: in vitro ADME; conditions: read-out: Rat Fu (plasma)
Experimental: as §1

[7] = In vitro DMPK: human fraction unbound in plasma; assay type: in vitro ADME; conditions: read-out: Human Fu (plasma)
Experimental: as §1

[8] = human, in vivo; cited from earlier work
[9] = without causing catalepsy; cited from earlier work
[10] = Alzheimer's disease patients; delusions, suspiciousness, vocal outbursts, hallucinations; cited from earlier work

SMILES | EC50 [1] [nM] | Emax [1] [%] | also measured
Cc1c(C(F)F)nnc2sc3c(N4CC5(COC5)C4)ncnc3c12 [Compound 4, 6-(3-(difluoromethyl)-4-methylpyrimido[4′,5′:4,5]thieno[2,3-c]pyridazin-8-yl)-2-oxa-6-azaspiro[3.3]heptane] | 84.1 | 82.7 | –
Cc1c(C(F)F)nnc2sc3c(N4CCCC4)ncnc3c12 [Compound 3, 3-(difluoromethyl)-4-methyl-8-(pyrrolidin-1-yl)pyrimido[4′,5′:4,5]thieno[2,3-c]pyridazine] | 238 | 83.5 | –
Cc1c(C(F)F)nnc2sc3c(NCc4ccc(C(C)(C)O)cc4)ncnc3c12 [Compound 1, 2-(4-(((3-(Difluoromethyl)-4-methylpyrimido[4′,5′:4,5]thieno[2,3-c]pyridazin-8-yl)amino)methyl)phenyl)propan-2-ol] | – | 98.7 | fraction unbound [2]: 0.006; Rat Predicted CLhep (mL/min/kg) Method A [3]: 19.1 mL/min/kg; Human Predicted CLhep (mL/min/kg) Method A ([4]; Method A (first line)): 6.69 mL/min/kg; Human Predicted CLhep (mL/min/kg) Method A ([4]; second line also printed as Method A): 0.34 mL/min/kg; clearance [5]: 2.67 mL/min/kg; fraction unbound [6]: 0.012; fraction unbound [7]: 0.01
Cc1c(C(F)F)nnc2sc3c(NC4CCCC4)ncnc3c12 [Compound 7, N-cyclopentyl-3-(difluoromethyl)-4-methylpyrimido[4′,5′:4,5]thieno[2,3-c]pyridazin-8-amine] | 271 | 95.4 | –
Nc1c2c(nc3ccccc13)CCCC2 [tacrine] | – | – | patients with elevated liver transaminases (hepatotoxicity) [8]: about 30%
Cc1ccccc1OC1CCN(c2ncnc3c2sc2nnc(C(F)F)c(C)c23)C1 (stereo not shown) [Compound 11, 3-(difluoromethyl)-4-methyl-8-(3-(o-tolyloxy)pyrrolidin-1-yl)pyrimido[4′,5′:4,5]thieno[2,3-c]pyridazine] | > 10000 | 68.7 | –
[2H]C([2H])(Nc1ncnc2c1sc1nnc(C(F)F)c(C)c12)c1ccc(C(C)(C)O)cc1 [Compound 8, 2-(4-(((3-(difluoromethyl)-4-methylpyrimido[4′,5′:4,5]thieno[2,3-c]pyridazin-8-yl)amino)methyl-d2)phenyl)propan-2-ol] | 528 | 95.8 | –
COc1ccc(CNc2ncnc3c2sc2nnc(C(F)F)c(C)c23)cc1F [Compound 2, 3-(difluoromethyl)-N-(3-fluoro-4-methoxybenzyl)-4-methylpyrimido[4′,5′:4,5]thieno[2,3-c]pyridazin-8-amine] | 581 | 79.8 | –
Cc1c(C(F)F)nnc2sc3c(NCc4ccc(C5(O)CCC5)cc4)ncnc3c12 [Compound 9, 1-(4-(((3-(difluoromethyl)-4-methylpyrimido[4′,5′:4,5]thieno[2,3-c]pyridazin-8-yl)amino)methyl)phenyl)cyclobutan-1-ol] | 809 | 95.5 | –
Cc1c(C(F)F)nnc2sc3c(NCc4ccc(C(C)(O)C5CC5)cc4)ncnc3c12 (stereo not shown) [Compound 10, 1-cyclopropyl-1-(4-(((3-(difluoromethyl)-4-methylpyrimido[4′,5′:4,5]thieno[2,3-c]pyridazin-8-yl)amino)methyl)phenyl)ethan-1-ol] | 860 | 95.5 | –
Cc1c(C(F)F)nnc2sc3c(N4CCOCC4)ncnc3c12 [Compound 6, 4-(3-(difluoromethyl)-4-methylpyrimido[4′,5′:4,5]thieno[2,3-c]pyridazin-8-yl)morpholine] | 572 | 72.2 | –
CCCCCCOc1nsnc1C1=CCCN(C)C1 [xanomeline] | – | – | activity in animal models with profiles similar to known antipsychotic drugs [9]: active in animal models; effect on psychotic behavioral symptoms [10]: reduce psychotic behavioral symptoms
Cc1c(C(F)F)nnc2sc3c(N4CC(CO)(CO)C4)ncnc3c12 [Compound 5, (1-(3-(difluoromethyl)-4-methylpyrimido[4′,5′:4,5]thieno[2,3-c]pyridazin-8-yl)azetidine-3,3-diyl)dimethanol] | 1060 | 81.9 | –
